The text below walks through data of ChEMBL document CHEMBL1201862, “PubChem BioAssay data set” (2004).

Some test systems named below: NCI-H460; HL-60; UO-31; KM12; Malme-3M; ACHN; CAKI-1; LOX IMVI; HT-29; K562; SW-620; NCI-H23; CCRF-CEM; HCC 2998; A549; NCI-H522; SF-268; EKVX; COLO 205; SK-OV-3.
Holding throughout (experiment): DTP human tumour cell line panel, 48 h

Structures are written as SMILES.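 Interpolation was linear, between the two tested concentrations surrounding the appropriate level; five concentrations were tested over 48 hours in 96-well plates. GI50 is the concentration that inhibits growth by half.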 Active and inactive are the calls of the source. No stated cut-off is given here; in the data, active = GI50 up to about 1.1 µM and inactive = higher.

As a reminder, the GI50 is the concentration giving 50% growth inhibition.

Take `Oc1ccc(-c2ccccc2)nn1`: the GI50 in the experiment on NCI-H460, in the experiment with HL-60, in the experiment with UO-31, in the experiment on KM12, in the experiment on Malme-3M and with ACHN was > 100 µM (inactive) in each case. In addition, the GI50 in the experiment on CAKI-1, in the experiment on LOX IMVI, in the experiment with HT-29, in the experiment on K562, in the experiment on SW-620 and with NCI-H23 was > 100 µM (inactive) each time. For the same compound, the GI50 in the experiment with CCRF-CEM, in the experiment with HCC 2998, in the experiment on A549, in the experiment with NCI-H522, in the experiment with SF-268 and with EKVX was > 100 µM (inactive) throughout.

Turning to `Cc1cn(C2CC(O)C(Cn3cc(Cn4ncc(=O)[nH]c4=O)nn3)O2)c(=O)[nH]c1=O` (stereo unspecified), the GI50 with HL-60, in the experiment on UO-31, in the experiment on KM12, in the experiment on COLO 205, in the experiment on Malme-3M and in the experiment on ACHN was > 100 µM (inactive) throughout. The GI50 with CAKI-1, in the experiment with LOX IMVI, in the experiment on HT-29, in the experiment on SW-620, in the experiment with NCI-H23 and with SK-OV-3 was > 100 µM (inactive) each time. Also, the GI50 in the experiment on CCRF-CEM is 0.478 µM (active); in the experiment on HCC 2998, > 100 µM (inactive); with A549, > 100 µM (inactive); with NCI-H522 it was > 100 µM (inactive); in the experiment with SF-268, > 100 µM (inactive); in the experiment with EKVX, > 100 µM (inactive).

Consider `N#CC1C(=O)N(c2ccccc2)NC12OC(=O)c1ccncc12` (stereo unspecified), for which the GI50 in the experiment on NCI-H460, with HL-60, in the experiment on UO-31, in the experiment with COLO 205, in the experiment on Malme-3M and in the experiment on ACHN was > 20 µM (inactive) each time. The GI50 in the experiment on CAKI-1, in the experiment with LOX IMVI, in the experiment on HT-29, in the experiment with K562, in the experiment with SW-620 and in the experiment with NCI-H23 was > 20 µM (inactive) each time. Besides, the GI50 with SK-OV-3, with CCRF-CEM, with HCC 2998, in the experiment on A549, with NCI-H522 and with EKVX was > 20 µM (inactive) throughout.

Regarding `COc1cc(/C=C2\N=C(C)N(n3c(-c4ccccc4)nc4ccccc4c3=O)C2=O)cc(OC)c1OC`, the GI50 with NCI-H460, in the experiment on HL-60, in the experiment with UO-31, in the experiment with KM12, in the experiment on COLO 205 and with Malme-3M was > 100 µM (inactive) throughout. The GI50 in the experiment on ACHN, with CAKI-1, in the experiment on LOX IMVI, with HT-29, with K562 and with SW-620 was > 100 µM (inactive) throughout. In addition, the GI50 is 94.6 µM (inactive) in the experiment with NCI-H23; > 100 µM (inactive) in the experiment on SK-OV-3; > 100 µM (inactive) in the experiment on CCRF-CEM; > 100 µM (inactive) in the experiment on HCC 2998; > 100 µM (inactive) in the experiment with A549; 46.3 µM (inactive) in the experiment on NCI-H522. In addition, the GI50 in the experiment on SF-268 and with EKVX was > 100 µM (inactive) in each case.

`COc1cc(C2CC(C)(Nc3ccccc3)Oc3cc4c(cc32)OCO4)cc(OC)c1OC` (stereo unspecified): the GI50 in the experiment with NCI-H460 was 0.327 µM (active); in the experiment on HL-60, 0.0906 µM (active); in the experiment with UO-31, 1.2 µM (inactive); with KM12, 0.19 µM (active); in the experiment on COLO 205, 0.839 µM (active); in the experiment on Malme-3M, 3.29 µM (inactive). The GI50 with ACHN was 0.499 µM (active); in the experiment with CAKI-1 it was 0.478 µM (active); with LOX IMVI, 0.256 µM (active); in the experiment on HT-29, 0.182 µM (active); in the experiment with K562 it was 0.0933 µM (active); with SW-620, 0.234 µM (active). Moreover, the GI50 in the experiment on NCI-H23 is 0.301 µM (active); with SK-OV-3, 0.394 µM (active); with CCRF-CEM, 0.124 µM (active); in the experiment on HCC 2998 it was 0.729 µM (active); with A549 it was 2.14 µM (inactive); in the experiment with NCI-H522, 0.296 µM (active). For the same compound, the GI50 in the experiment with SF-268 is 4.58 µM (inactive); in the experiment on EKVX, 1.82 µM (inactive).

`CN1CN(c2ccccc2)C2(CCN(CCc3csc4ccccc34)CC2)C1=O`: the GI50 in the experiment on HL-60 is 9.38 µM (inactive); in the experiment with UO-31, 1.8 µM (inactive); in the experiment with KM12 it was 12.6 µM (inactive); in the experiment with COLO 205 it was 14.3 µM (inactive); in the experiment with Malme-3M, 15 µM (inactive); in the experiment on ACHN, > 10 µM (inactive). For the same compound, the GI50 in the experiment with CAKI-1 was 11.2 µM (inactive); in the experiment with LOX IMVI, 13.7 µM (inactive); with HT-29, 4.04 µM (inactive); with K562, 14.8 µM (inactive); with SW-620, 16.9 µM (inactive); in the experiment with NCI-H23 it was 17.4 µM (inactive). The GI50 with SK-OV-3 is 25.9 µM (inactive); with CCRF-CEM, 12.3 µM (inactive); in the experiment with HCC 2998, 7.21 µM (inactive); in the experiment with A549 it was 24.2 µM (inactive); in the experiment on NCI-H522 it was 15.9 µM (inactive); with SF-268, 28.8 µM (inactive). For the same compound, in the experiment with EKVX, the GI50 is 12.8 µM (inactive).

Take `Cc1cc(O)c(C=O)c(C)c1CCC1(C)C=Cc2cc(O)ccc2O1` (stereo unspecified): the GI50 is 22.6 µM (inactive) in the experiment on NCI-H460; 22.8 µM (inactive) in the experiment on HL-60; 31.3 µM (inactive) in the experiment with KM12; 15.6 µM (inactive) with COLO 205; 24.8 µM (inactive) in the experiment on Malme-3M; 15.7 µM (inactive) in the experiment on ACHN. Further, the GI50 in the experiment on CAKI-1 was 19.2 µM (inactive); in the experiment with LOX IMVI it was 19.6 µM (inactive); in the experiment with HT-29, 31 µM (inactive); in the experiment with K562, 24.3 µM (inactive); with SW-620, 20.9 µM (inactive); in the experiment on NCI-H23 it was 16.7 µM (inactive). The GI50 with SK-OV-3 was 23.9 µM (inactive); in the experiment on CCRF-CEM, 17.1 µM (inactive); with HCC 2998, 29.4 µM (inactive); in the experiment with A549, 35.9 µM (inactive); in the experiment with NCI-H522, 14.8 µM (inactive); in the experiment with SF-268, 30.3 µM (inactive). In the experiment on EKVX, the GI50 was 29.5 µM (inactive).

As to `C[C@@H]1C[C@@H]2OC(=O)[C@]3(C)[C@H]2[C@@H](OC3(C)O)[C@]2(C)C(=O)C=C[C@@H]12` (stereo partly specified) [TENULIN], the GI50 with HL-60 was 3.48 µM (inactive); in the experiment with UO-31, 40.8 µM (inactive); in the experiment with KM12, 23.6 µM (inactive); with COLO 205, 14.2 µM (inactive); with Malme-3M, 13.6 µM (inactive); with ACHN, 19.5 µM (inactive). Also, the GI50 is 22.1 µM (inactive) with CAKI-1; 19.2 µM (inactive) with LOX IMVI; 15.2 µM (inactive) in the experiment with HT-29; 0.0543 µM (active) in the experiment on K562; 16.9 µM (inactive) in the experiment with SW-620; 25.9 µM (inactive) with NCI-H23. Moreover, the GI50 is > 100 µM (inactive) in the experiment on SK-OV-3; 4.68 µM (inactive) with CCRF-CEM; 17.2 µM (inactive) in the experiment on HCC 2998; > 100 µM (inactive) with A549; 6.67 µM (inactive) in the experiment on NCI-H522; 31.3 µM (inactive) with SF-268. In addition, the GI50 in the experiment with EKVX was 20.2 µM (inactive).
